As usually defined, the IC50 is the concentration at which inhibition is half-maximal.

The structures appear in SMILES notation.

Experimental findings from patent US10851108B2, “Substituted bicyclic heterocyclic compounds” (BRISTOL-MYERS SQUIBB COMPANY, priority 2016, dated 2020) are described below.

The target in the experiment is hROMK (human Kir1.1) (Homo sapiens (Human), UniProt P48048). As to the kind of experiment: Thallium Flux Assay. Type of experiment: cell-based. Conditions: CHO T-Rex hROMK stable cell line, 10-point concentration response; read-out: hROMK Th+ Flux IC50. How it is done: Solutions and reagents: Thallium flux assay was performed using FluxOR kit (F10017, Life Technologies). Loading buffer, assay buffer and stimulus buffer were prepared using kit components. HBSS (Hank's balanced salt solution, Cat #14025-092) was purchased separately from Life Technologies.
Sequence of hROMK (human Kir1.1) (P48048 whole entry): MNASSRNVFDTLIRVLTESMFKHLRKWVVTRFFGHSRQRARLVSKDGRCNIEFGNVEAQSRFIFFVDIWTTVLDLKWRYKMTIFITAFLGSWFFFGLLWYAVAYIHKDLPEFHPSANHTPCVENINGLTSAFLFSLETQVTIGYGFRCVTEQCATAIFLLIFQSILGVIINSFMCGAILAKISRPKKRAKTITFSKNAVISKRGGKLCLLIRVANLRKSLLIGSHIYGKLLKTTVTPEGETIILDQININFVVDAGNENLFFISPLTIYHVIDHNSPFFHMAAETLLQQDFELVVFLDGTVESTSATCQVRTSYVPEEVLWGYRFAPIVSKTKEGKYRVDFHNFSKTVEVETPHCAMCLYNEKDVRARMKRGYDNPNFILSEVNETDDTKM
To prepare 10 ml of loading buffer: 10 μl of FluxOR dye (reconstituted in DMSO) was first added to 100 μl of powerload concentrate and this mix along with 100 μl of Probenicid (100×) was then added to 9.79 ml of HBSS. Assay buffer (10 ml) was prepared by addition of 2 ml of FluxOR chloride free buffer (5×), 100 μl of Probenicid (100×), and 0.2 ml of Ouabain (13.77 mM) to 7.7 ml of deionized water. Stimulus buffer was composed of 15 mM Tl2SO4, 0.75 mM K2SO4 in FluxOR chloride free buffer (diluted to 1× using deionized water). The final concentration of Tl2SO4 and K2SO4 in the assay plate was 3 mM and 0.15 mM, respectively.
Plating and induction of cells: The CHO T-Rex hROMK (human Kir1.1) stable cell line was maintained in Ham's F12 media supplemented with 10% FBS, 1% Penicillin-Streptomycin, 500 μg/ml Zeocin and 10 μg/ml Blasticidin at 37° C. in a 5% CO2 incubator. One day before the experiment, the cells were dissociated by incubation with Versene solution (15040-066, Life Technologies) for 10 minutes at 37° C. followed by addition of growth media. The cell suspension was centrifuged at 1200 rpm for 5 min. After discarding the supernatant, the cells were resuspended in fresh growth media and cell concentration was determined using a hemocytometer. Next, 0.5 μg/ml of Doxycycline was added to the cell suspension to induce hROMK channel expression and 50 μl (10,000 cells/well) of cell suspension was added to each well of a poly-D lysine coated 384 well black, optically clear bottom plate (6007718, Perkin Elmer). The assay plate was kept at 37° C. in a 5% CO2 incubator.
Assay protocol: On the day of experiment, media was removed and loading buffer was added (30 μl/well) to the assay plate. The cells were incubated in the loading buffer for 30 minutes at 37° C. The loading buffer was then replaced by assay buffer (30 μl/well) followed by addition of test compounds or controls. The cells were incubated with compounds for 30 minutes and the plate was then mounted on FlexStation (Molecular Devices) for fluorescence read out with excitation and emission wavelengths at 488 and 525 nm, respectively. Each well was read for 90 sec at 2 sec interval and the stimulus buffer was added after 20 seconds of baseline recording. The final DMSO concentration was either 0.5 or 1% in the assay plate. […] controls were defined by addition of DMSO or 3 μM of a standard ROMK inhibitor, respectively, to the wells instead of a test compound.
A 10-point concentration response curve was used to estimate the IC50 value of test compounds.
The data in Table 3 is reported with two significant figures.
For the compound `Cc1c(CN2Cc3cnc(Nc4ccc(C#N)c(F)c4)nc3CC2CO)ccc2c1COC2=O` (single isomer, unassigned) [Example 57-I, 2-fluoro-4-((7-(hydroxymethyl)-6-((4-methyl-1-oxo-1,3-dihydroisobenzo-furan-5-yl)methyl)-5,6,7,8-tetrahydro-pyrido[4,3-d]pyrimidin-2-yl)amino) benzonitrile], the IC50 amounted to 830 nM. In the case of `Cc1c(C(CO)N2CCc3cc(Nc4ccc(C#N)c(F)c4)ccc3C2)ccc2c1COC2=O` (single isomer, unassigned) [Example 33-I, 2-fluoro-4-((2-(2-hydroxy-1-(4-methyl-1-oxo-1,3-dihydroisobenzofuran-5-yl)ethyl)-1,2,3,4-tetrahydroisoquinolin-6-yl)amino) benzonitrile] it was 490 nM. The same measure for `Cn1c(=O)oc2ccc(C(O)CN3CCc4nc(-n5ncc6c(C#N)cccc65)ncc4C3)cc21` (single isomer, unassigned) [Example 3-II, 1-(6-(2-hydroxy-2-(3-methyl-2-oxo-2,3-dihydrobenzo[d]oxazol-5-yl)ethyl)-5,6,7,8-tetrahydropyrido[4,3-d]pyrimidin-2-yl)-1H-indazole-4-carbonitrile]: 1600 nM.

On to `Cc1c(C(O)CN2CCc3nc(Nc4cncc(C#N)c4)ncc3C2)ccc2c1COC2=O` (single isomer, unassigned) [Example 61-I, 5-((6-(2-hydroxy-2-(4-methyl-1-oxo-1,3-dihydroisobenzofuran-5-yl)ethyl)-5,6,7,8-tetrahydropyrido[4,3-d]pyrimidin-2-yl)amino)nicotinonitrile], for which the IC50 came to 568 nM. The same measure for `Cc1c(C(CO)N2CCc3nc(-n4ccc5cc(C#N)cnc54)ncc3C2)ccc2c1COC2=O` (single isomer, unassigned) [Example 45-I, 1-(6-(2-hydroxy-1-(4-methyl-1-oxo-1,3-dihydroisobenzofuran-5-yl)ethyl)-5,6,7,8-tetrahydropyrido[4,3-d]pyrimidin-2-yl)-1H-pyrrolo[2,3-b]pyridine-5-carbonitrile]: 4700 nM. The same measure for `Cc1c(CN2CCc3cc(Nc4ccn5nccc5n4)ccc3C2)ccc2c1COC2=O` [Example 38, 4-methyl-5-((6-(pyrazolo[1,5-a]pyrimidin-5-ylamino)-3,4-dihydroisoquinolin-2(1H)-yl)methyl)isobenzofuran-1(3H)-one]: 1900 nM; for `Cc1c(CN2CCc3nc(Nc4ccc(C#N)c(F)c4)ncc3C2)ccc2c1COC2=O` [Example 26, 2-fluoro-4-((6-((4-methyl-1-oxo-1,3-dihydroisobenzofuran-5-yl)methyl)-5,6,7,8-tetrahydropyrido[4,3-d]pyrimidin-2-yl)amino) benzonitrile]: 270 nM; for `Cc1c(CN2CCc3nc(-n4cc(C#N)c5ccccc54)ncc3C2)ccc2c1COC2=O` [Example 23, 1-(6-((4-methyl-1-oxo-1,3-dihydro-isobenzofuran-5-yl)methyl)-5,6,7,8-tetrahydropyrido[4,3-d]pyrimidin-2-yl)-1H-indole-3-carbonitrile]: 1100 nM. For `Cc1c(C(O)CN2CCc3nc(-n4ccc5c(C#N)ccnc54)ncc3C2)ccc2c1COC2=O` (single isomer, unassigned) [Example 19-I, 1-(6-(2-hydroxy-2-(4-methyl-1-oxo-1,3-dihydroisobenzofuran-5-yl)ethyl)-5,6,7,8-tetrahydropyrido[4,3-d]pyrimidin-2-yl)-1H-pyrrolo[2,3-b]pyridine-4-carbonitrile], the IC50 was 460 nM. Turning to `Cc1c(CN2CCc3cc(-n4ccc5c(C#N)cccc54)ccc3C2)ccc2c1COC2=O` [Example 24, 1-(2-((4-methyl-1-oxo-1,3-dihydro-isobenzofuran-5-yl)methyl)-1,2,3,4-tetrahydroisoquinolin-6-yl)-1H-indole-4-carbonitrile], the IC50 is 820 nM. The same measure for `Cn1c(=O)oc2ccc(C(O)CN3CCc4nc(-n5ncc6c(C#N)cccc65)ncc4C3)cc21` (single isomer, unassigned) [Example 3-I, 1-(6-(2-hydroxy-2-(3-methyl-2-oxo-2,3-dihydrobenzo[d]oxazol-5-yl)ethyl)-5,6,7,8-tetrahydropyrido[4,3-d]pyrimidin-2-yl)-1H-indazole-4-carbonitrile]: 740 nM. In the case of `Cc1c(C(O)CN2CCc3nc(-n4ncc5c(C#N)cccc54)ncc3C2)ccc2c1COC2=O` (single isomer, unassigned) [Example 12-I, 1-(6-(2-hydroxy-2-(4-methyl-1-oxo-1,3-dihydroisobenzofuran-5-yl)ethyl)-5,6,7,8-tetrahydropyrido[4,3-d]pyrimidin-2-yl)-1H-indazole-4-carbonitrile] it was 38 nM; in that of `Cc1c(CN2CCc3cc(Nc4ncc(C#N)cn4)ccc3C2)ccc2c1COC2=O` [Example 37, 2-((2-((4-methyl-1-oxo-1,3-dihydro-isobenzofuran-5-yl)methyl)-1,2,3,4-tetrahydroisoquinolin-6-yl)amino) pyrimidine-5-carbonitrile], 4900 nM; in that of `Cc1c(C(CO)N2CCc3nc(-n4cc(C#N)c5ccccc54)ncc3C2)ccc2c1COC2=O` (single isomer, unassigned) [Example 9-I, 1-(6-(2-hydroxy-1-(4-methyl-1-oxo-1,3-dihydroisobenzofuran-5-yl)ethyl)-5,6,7,8-tetrahydropyrido[4,3-d]pyrimidin-2-yl)-1H-indole-3-carbonitrile], 3000 nM. Turning to `N#Cc1ccc(Nc2ccc3c(c2)CCN(CCc2ccc4c(c2)COC4=O)C3)cc1F` [Example 6, 2-fluoro-4-((2-(2-(1-oxo-1,3-dihydroisobenzofuran-5-yl)ethyl)-1,2,3,4-tetrahydroisoquinolin-6-yl)amino)benzonitrile], the IC50 was found to be 120 nM. In the case of `Cn1c(=O)oc2ccc(C(O)CN3CCc4nc(-n5ccc6c(C#N)cccc65)ncc4C3)cc21` (single isomer, unassigned) [Example 22-II, 1-(6-(2-hydroxy-2-(3-methyl-2-oxo-2,3-dihydrobenzo[d]oxazol-5-yl)ethyl)-5,6,7,8-tetrahydropyrido[4,3-d]pyrimidin-2-yl)-1H-indole-4-carbonitrile] it was 700 nM; in that of `Cc1c(C(O)CN2CCc3nc(-n4ccc5cc(C#N)cnc54)ncc3C2)ccc2c1COC2=O` (single isomer, unassigned) [Example 44-I, 1-(6-(2-hydroxy-2-(4-methyl-1-oxo-1,3-dihydroisobenzofuran-5-yl)ethyl)-5,6,7,8-tetrahydropyrido[4,3-d]pyrimidin-2-yl)-1H-pyrrolo[2,3-b]pyridine-5-carbonitrile], 2100 nM. In the case of `Cc1c(CN2CCc3nc(-n4cnc5c(C#N)cccc54)ncc3C2)ccc2c1COC2=O` [Example 40, 1-(6-((4-methyl-1-oxo-1,3-dihydro-isobenzofuran-5-yl)methyl)-5,6,7,8-tetrahydropyrido[4,3-d]pyrimidin-2-yl)-1H-benzo[d]imidazole-4-carbonitrile] it was 3400 nM; in that of `Cc1c(C(O)CN2CCc3nc(-n4ncc5c(C#N)cccc54)ncc3C2)ccc2c1COC2=O` (single isomer, unassigned) [Example 12-II, 1-(6-(2-hydroxy-2-(4-methyl-1-oxo-1,3-dihydroisobenzofuran-5-yl)ethyl)-5,6,7,8-tetrahydropyrido[4,3-d]pyrimidin-2-yl)-1H-indazole-4-carbonitrile], 410 nM; in that of `O=C1OCc2cc(CN3CCc4cc(Nc5ccc6c(c5)COC6=O)ccc4C3)ccc21` [Example 15, 5-((6-((1-oxo-1,3-dihydroisobenzofuran-5-yl)amino)-3,4-dihydroisoquinolin-2(1H)-yl)methyl)isobenzofuran-1(3H)-one], 21 nM.

For `Cc1c(C(O)CN2CCc3nc(-n4ncc5ncccc54)ncc3C2)ccc2c1COC2=O` (single isomer, unassigned) [Example 41-II, 5-(2-(2-(1H-pyrazolo[4,3-b]pyridin-1-yl)-7,8-dihydropyrido[4,3-d]pyrimidin-6(5H)-yl)-1-hydroxyethyl)-4-methylisobenzofuran-1(3H)-one], the IC50 was determined as 1200 nM.
